# Reference: ChEMBL document CHEMBL1287695, “Cholesterol-derived novel anti-apoptotic agents on the structural basis of ginsenoside Rk1” (Bioorg Med Chem Lett, 2010)
# Active and inactive are the calls of the source. No cut-off for these calls is given here.
# Key:
# Format in all cases: functional, cell-based
# Details in all cases: Homo sapiens
# [1] = system: HUVEC; experiment: Antiapoptotic activity against HUVEC cells at 5 ug/ml after 24 hrs by MTT calorimetric assay
# [2] = system: HUVEC; experiment: Antiapoptotic activity against HUVEC cells at 5 ug/ml after 48 hrs by MTT calorimetric assay
# [3] = system: HUVEC; experiment: Antiapoptotic activity against HUVEC cells at 10 ug/ml after 24 hrs by MTT calorimetric assay
# [4] = system: HUVEC; experiment: Antiapoptotic activity against HUVEC cells at 10 ug/ml after 48 hrs by MTT calorimetric assay
# [5] = system: HREC; experiment: Antiapoptotic activity against HREC cells assessed as cell viability after 48 hrs
# [6] = system: HUVEC; experiment: Antiapoptotic activity against HUVEC cells assessed as inhibition of DNA condensation and fragmentation after 48 hrs by DAPI staining
# [7] = system: HUVEC; experiment: Antiapoptotic activity against HUVEC cells assessed as inhibition of DNA condensation and fragmentation after 48 hrs by TUNEL assay
Compound,Activity [1],Activity [2],Activity [3],Activity [4],Activity [5],Activity [6],Activity [7]
COC[C@H]1O[C@@H](O[C@H]2CC[C@@]3(C)C(=CC[C@H]4[C@@H]5CC[C@H]([C@H](C)CCCC(C)C)[C@@]5(C)CC[C@@H]43)C2)C=C[C@@H]1OC,Active,Active,Active,Active,,,
COCCOCO[C@H]1CC[C@@]2(C)C(=CC[C@H]3[C@@H]4CC[C@H]([C@H](C)CCCC(C)C)[C@@]4(C)CC[C@@H]32)C1,Active,Active,,,,,
COC[C@H]1O[C@@H](O[C@H]2CC[C@@]3(C)C(=CC[C@H]4[C@@H]5CC[C@H]([C@H](C)CCCC(C)C)[C@@]5(C)CC[C@@H]43)C2)C[C@@H](OC)[C@@H]1OC,inactive,inactive,inactive,inactive,,,
CC(C)CCC[C@@H](C)[C@H]1CC[C@H]2[C@@H]3CC=C4C[C@@H](O[C@H]5C[C@@H](O)[C@H](O)[C@@H](CO)O5)CC[C@]4(C)[C@H]3CC[C@]12C,Active,Active,Active,Active,,,
CC(C)CCC[C@@H](C)[C@H]1CC[C@H]2[C@@H]3CC=C4C[C@@H](O[C@@H]5O[C@H](CO)[C@@H](O)[C@H](O)[C@H]5O)CC[C@]4(C)[C@H]3CC[C@]12C,inactive,inactive,inactive,inactive,,,
CC(C)CCC[C@@H](C)[C@H]1CC[C@H]2[C@@H]3CC=C4C[C@@H](O[C@H]5CCCCO5)CC[C@]4(C)[C@H]3CC[C@]12C,Active,Active,Active,Active,Active,Active,Active
C=C(CCC=C(C)C)[C@H]1CC[C@]2(C)[C@@H]1[C@H](O)C[C@@H]1[C@@]3(C)CC[C@H](O[C@@H]4O[C@H](CO)[C@@H](O)[C@H](O)[C@H]4O[C@@H]4O[C@H](CO)[C@@H](O)[C@H](O)[C@H]4O)C(C)(C)[C@@H]3CC[C@]12C,Active,Active,Active,Active,,,
C=CCO[C@H]1CC[C@@]2(C)C(=CC[C@H]3[C@@H]4CC[C@H]([C@H](C)CCCC(C)C)[C@@]4(C)CC[C@@H]32)C1,Active,Active,,,,,
CC(C)CCC[C@@H](C)[C@H]1CC[C@H]2[C@@H]3CC=C4C[C@@H](O[C@H]5C=C[C@H](O)[C@@H](CO)O5)CC[C@]4(C)[C@H]3CC[C@]12C,inactive,inactive,inactive,inactive,,,
CC(=O)OC[C@H]1O[C@@H](O[C@H]2CC[C@@]3(C)C(=CC[C@H]4[C@@H]5CC[C@H]([C@H](C)CCCC(C)C)[C@@]5(C)CC[C@@H]43)C2)C=C[C@@H]1OC(C)=O,Active,Active,Active,Active,Active,Active,Active
CC(C)CCC[C@@H](C)[C@H]1CC[C@H]2[C@@H]3CC=C4C[C@@H](OC/C=C/CO)CC[C@]4(C)[C@H]3CC[C@]12C,Active,Active,,,,,
CC(C)CCC[C@@H](C)[C@H]1CC[C@H]2[C@@H]3CC=C4C[C@@H](Oc5ccc6ccccc6c5)CC[C@]4(C)[C@H]3CC[C@]12C,Active,Active,,,,,
